Results reported in patent US20230079819A1, “COMPOUNDS AND USES THEREOF” (Foghorn Therapeutics Inc., priority 2019, published 2023).

Experiments:
BRM = target: T1, BRM (Homo sapiens, UniProt P51531); test: ATPase catalytic activity of BRM, ADP-Glo in vitro biochemical assay; settings: ATPase catalytic activity, 30 nM BRM, 400 μM ATP, read-out: BRM IP50 (μM)*
T1 construct: made in house; host or cells: High Five insect cells

BRG-1 = target: T2, BRG-1 (Homo sapiens, UniProt P51532); test: ATPase catalytic activity of BRG-1, ADP-Glo in vitro biochemical assay; settings: ATPase catalytic activity, 30 nM BRG-1, 400 μM ATP, read-out: BRG1 IP50 (μM)*
T2 construct: made in house; host or cells: High Five insect cells
T2 sequence (P51532 whole entry): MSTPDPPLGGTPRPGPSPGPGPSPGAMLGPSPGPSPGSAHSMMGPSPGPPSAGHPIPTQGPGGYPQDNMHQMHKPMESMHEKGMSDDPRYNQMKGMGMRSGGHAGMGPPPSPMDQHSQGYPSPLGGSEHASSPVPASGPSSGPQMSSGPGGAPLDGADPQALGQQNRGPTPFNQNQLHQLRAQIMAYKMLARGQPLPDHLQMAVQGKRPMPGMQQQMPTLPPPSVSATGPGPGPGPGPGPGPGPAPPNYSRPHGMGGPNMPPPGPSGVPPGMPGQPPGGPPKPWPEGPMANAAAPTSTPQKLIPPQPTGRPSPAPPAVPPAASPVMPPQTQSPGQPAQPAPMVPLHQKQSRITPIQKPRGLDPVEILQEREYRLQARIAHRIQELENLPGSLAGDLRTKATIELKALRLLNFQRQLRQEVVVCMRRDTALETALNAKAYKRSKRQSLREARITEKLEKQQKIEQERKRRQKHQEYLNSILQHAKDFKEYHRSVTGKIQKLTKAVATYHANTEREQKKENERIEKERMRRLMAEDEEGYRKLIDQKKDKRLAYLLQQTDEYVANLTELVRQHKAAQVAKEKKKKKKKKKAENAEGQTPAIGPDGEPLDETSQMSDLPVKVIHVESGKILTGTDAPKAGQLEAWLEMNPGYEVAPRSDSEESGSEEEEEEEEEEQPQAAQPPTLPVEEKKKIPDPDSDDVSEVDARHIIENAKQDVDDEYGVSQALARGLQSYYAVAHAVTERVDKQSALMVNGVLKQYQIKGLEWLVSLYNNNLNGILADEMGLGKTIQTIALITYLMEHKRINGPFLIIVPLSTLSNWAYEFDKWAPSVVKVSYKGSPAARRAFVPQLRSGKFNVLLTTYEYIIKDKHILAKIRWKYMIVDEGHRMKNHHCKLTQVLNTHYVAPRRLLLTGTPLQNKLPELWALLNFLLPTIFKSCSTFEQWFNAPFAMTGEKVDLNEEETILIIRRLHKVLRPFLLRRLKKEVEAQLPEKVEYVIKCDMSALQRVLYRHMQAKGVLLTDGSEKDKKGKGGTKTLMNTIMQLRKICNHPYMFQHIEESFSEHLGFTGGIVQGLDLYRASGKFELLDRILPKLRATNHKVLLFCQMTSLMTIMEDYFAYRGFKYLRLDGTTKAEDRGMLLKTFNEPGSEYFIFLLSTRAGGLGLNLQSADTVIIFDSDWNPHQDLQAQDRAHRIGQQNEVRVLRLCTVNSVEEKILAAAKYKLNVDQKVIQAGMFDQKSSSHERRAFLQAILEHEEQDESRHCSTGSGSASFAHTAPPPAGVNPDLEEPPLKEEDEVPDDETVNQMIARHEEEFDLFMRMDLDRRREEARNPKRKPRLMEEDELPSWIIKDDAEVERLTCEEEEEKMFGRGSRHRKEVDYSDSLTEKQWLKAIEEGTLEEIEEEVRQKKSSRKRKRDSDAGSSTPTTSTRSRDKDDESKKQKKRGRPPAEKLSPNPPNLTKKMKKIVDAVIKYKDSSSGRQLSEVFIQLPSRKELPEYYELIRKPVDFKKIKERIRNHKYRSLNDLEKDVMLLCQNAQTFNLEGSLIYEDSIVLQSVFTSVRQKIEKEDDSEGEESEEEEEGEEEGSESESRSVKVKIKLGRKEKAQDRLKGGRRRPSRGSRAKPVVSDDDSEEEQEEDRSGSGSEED

T1 sequence (P51531 whole entry): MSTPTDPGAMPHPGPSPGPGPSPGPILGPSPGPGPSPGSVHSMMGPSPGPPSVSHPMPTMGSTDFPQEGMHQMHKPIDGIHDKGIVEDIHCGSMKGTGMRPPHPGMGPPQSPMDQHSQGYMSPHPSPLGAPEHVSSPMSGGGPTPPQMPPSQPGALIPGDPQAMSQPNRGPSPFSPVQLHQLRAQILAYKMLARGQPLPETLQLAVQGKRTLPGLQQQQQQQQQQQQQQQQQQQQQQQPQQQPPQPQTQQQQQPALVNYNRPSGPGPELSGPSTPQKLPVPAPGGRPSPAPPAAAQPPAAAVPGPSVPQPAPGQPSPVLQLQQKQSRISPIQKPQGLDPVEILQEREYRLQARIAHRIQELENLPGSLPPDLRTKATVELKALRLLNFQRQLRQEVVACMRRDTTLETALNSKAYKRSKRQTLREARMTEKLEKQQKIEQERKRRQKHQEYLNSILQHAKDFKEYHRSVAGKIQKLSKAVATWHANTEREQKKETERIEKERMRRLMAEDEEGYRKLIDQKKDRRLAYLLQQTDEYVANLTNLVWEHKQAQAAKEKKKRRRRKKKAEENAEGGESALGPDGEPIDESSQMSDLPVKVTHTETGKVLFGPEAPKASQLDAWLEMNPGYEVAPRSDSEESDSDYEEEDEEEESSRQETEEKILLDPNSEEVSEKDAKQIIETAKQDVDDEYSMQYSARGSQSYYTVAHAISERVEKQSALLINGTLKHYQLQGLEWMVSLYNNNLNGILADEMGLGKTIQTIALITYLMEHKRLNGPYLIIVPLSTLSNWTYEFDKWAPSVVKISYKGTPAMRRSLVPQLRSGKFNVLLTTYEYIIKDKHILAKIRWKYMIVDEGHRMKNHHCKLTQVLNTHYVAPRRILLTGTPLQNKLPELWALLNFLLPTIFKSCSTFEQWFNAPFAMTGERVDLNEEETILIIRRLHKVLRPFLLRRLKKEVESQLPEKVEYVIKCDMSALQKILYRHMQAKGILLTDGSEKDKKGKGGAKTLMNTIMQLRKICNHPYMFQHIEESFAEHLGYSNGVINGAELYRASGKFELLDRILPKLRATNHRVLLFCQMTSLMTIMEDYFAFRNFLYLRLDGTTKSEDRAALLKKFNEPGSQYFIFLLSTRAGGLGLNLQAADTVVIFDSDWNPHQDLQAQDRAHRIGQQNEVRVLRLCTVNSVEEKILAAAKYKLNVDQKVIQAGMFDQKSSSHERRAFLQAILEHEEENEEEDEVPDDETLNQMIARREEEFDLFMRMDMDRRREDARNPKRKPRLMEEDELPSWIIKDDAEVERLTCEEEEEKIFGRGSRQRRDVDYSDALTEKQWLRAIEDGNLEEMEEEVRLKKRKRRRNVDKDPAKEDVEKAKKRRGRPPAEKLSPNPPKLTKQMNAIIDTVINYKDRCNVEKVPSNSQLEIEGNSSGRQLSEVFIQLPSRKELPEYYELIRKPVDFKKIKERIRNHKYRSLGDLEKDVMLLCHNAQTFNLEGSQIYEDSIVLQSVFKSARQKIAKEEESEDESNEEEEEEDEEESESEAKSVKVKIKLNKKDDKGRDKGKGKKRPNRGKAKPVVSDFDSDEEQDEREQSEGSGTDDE

Row | SMILES | IC50 (BRM) | IC50 (BRG-1)
1 | CS(=O)(=O)n1ccc(C(=O)NCC(=O)Nc2nc(-c3cccc(N4CCC(CO)(C(F)(F)F)C4)c3)cs2)c1 (centres unmarked) [Compound 169] | > 0.1 µM | > 0.1 µM
2 | CS(=O)(=O)n1ccc(C(=O)NCC(=O)Nc2nc(-c3cccc(N4CC5(CCCCO5)C4)c3)cs2)c1 [Compound 170] | > 0.01 µM | > 0.01 µM
3 | CS(=O)(=O)n1ccc(C(=O)NCC(=O)Nc2nc(-c3cccc(N4CC5(CCCOC5)C4)c3)cs2)c1 [Compound 171] | > 0.1 µM | > 0.1 µM
4 | CS(=O)(=O)n1ccc(C(=O)NCC(=O)Nc2nc(-c3cccc(N4CC(n5ccnc5)C4)c3)cs2)c1 [Compound 172] | > 0.01 µM | > 0.1 µM
5 | CS(=O)(=O)n1ccc(C(=O)NCC(=O)Nc2nc(-c3cccc(N4CC(n5cccn5)C4)c3)cs2)c1 [Compound 174] | > 0.01 µM | > 0.01 µM
6 | CN(C)C1CN(c2cccc(-c3csc(NC(=O)CNC(=O)c4ccn(S(C)(=O)=O)c4)n3)c2)C1 [Compound 175] | > 0.01 µM | > 0.01 µM
7 | CS(=O)(=O)n1ccc(C(=O)NCC(=O)Nc2nc(-c3cccc(N4CC(O)(C(F)(F)F)C4)c3)cs2)c1 [Compound 176] | > 0.1 µM | > 0.1 µM
8 | CS(=O)(=O)n1ccc(C(=O)NCC(=O)Nc2nc(-c3cccc(N4CC[C@H](O)C4)c3)cs2)c1 [Compound 177] | > 0.01 µM | > 0.01 µM
9 | CS(=O)(=O)n1ccc(C(=O)NCC(=O)Nc2nc(-c3cccc(N4CC[C@@H](O)C4)c3)cs2)c1 [Compound 178] | < 0.01 µM | < 0.01 µM
10 | CC1(O)CN(c2cccc(-c3csc(NC(=O)CNC(=O)c4ccn(S(C)(=O)=O)c4)n3)c2)C1 [Compound 179] | > 0.01 µM | > 0.01 µM
11 | CO[C@H]1CN(c2cccc(-c3csc(NC(=O)CNC(=O)c4ccn(S(C)(=O)=O)c4)n3)c2)C[C@@H]1F [Compound 180] | > 0.01 µM | > 0.01 µM
12 | C[C@@H]1CN(c2cccc(-c3nc(NC(=O)CNC(=O)c4ccn(S(C)(=O)=O)c4)sc3F)c2)C[C@H](C)O1 [Compound 181, N-[2-[[4-[3-[(cis)-2,6-dimethylmorpholin-4-yl]phenyl]-5-fluoro-thiazol-2-yl]amino]-2-oxo-ethyl]-1-methylsulfonyl-pyrrole-3-carboxamide] | > 0.01 µM | > 0.01 µM
13 | C[C@@H]1CN(c2cccc(-c3csc(NC(=O)CNC(=O)c4ccn(S(C)(=O)=O)c4)n3)c2)CC[C@H]1O [Compound 182, N-[2-[[4-[3-[(3R,4R)-4-hydroxy-3-methyl-1-piperidyl]phenyl]thiazol-2-yl]amino]-2-oxo-ethyl]-1-methylsulfonyl-pyrrole-3-carboxamide] | < 0.01 µM | < 0.01 µM
14 | C[C@H]1CN(c2cccc(-c3csc(NC(=O)CNC(=O)c4ccn(S(C)(=O)=O)c4)n3)c2)CC[C@@H]1O [Compound 183, N-[2-[[4-[3-[(3S,4S)-4-hydroxy-3-methyl-1-piperidyl]phenyl]thiazol-2-yl]amino]-2-oxo-ethyl]-1-methylsulfonyl-pyrrole-3-carboxamide] | < 0.01 µM | < 0.01 µM
15 | COCCOC1CN(c2cccc(-c3csc(NC(=O)CNC(=O)c4ccn(S(C)(=O)=O)c4)n3)c2)C1 [Compound 184] | > 0.01 µM | > 0.01 µM
16 | CC1(n2ccc(C(=O)NCC(=O)Nc3nc(-c4cccc(N5CCC5)c4)cs3)c2)COC1 [Compound 185] | > 0.01 µM | > 0.01 µM
17 | CC(C)(C)n1ccc(C(=O)NCC(=O)Nc2nc(-c3cccc(N4CCC4)c3)cs2)c1 [Compound 186] | > 0.01 µM | > 0.01 µM
18 | C[C@@H]1CN(c2cccc(-c3csc(NC(=O)CNC(=O)c4ccn(S(C)(=O)=O)c4)n3)c2)CC[C@@H]1O [Compound 188] | < 0.01 µM | > 0.01 µM

Row | SMILES | IC50 (BRM) | IC50 (BRG-1)
19 | CN(C)C(=O)Cn1ccc(-c2cccc(-c3csc(NC(=O)CNC(=O)c4ccn(S(C)(=O)=O)c4)n3)c2)n1 [Compound 189] | < 0.01 µM | < 0.01 µM
20 | CS(=O)(=O)n1ccc(C(=O)NCC(=O)Nc2nc(-c3cccc(N4CC[C@H](O)[C@@H](F)C4)c3)cs2)c1 [Compound 190] | < 0.01 µM | < 0.01 µM
21 | CS(=O)(=O)n1ccc(C(=O)NCC(=O)Nc2nc(-c3cccc(N4CC[C@H](O)[C@H](F)C4)c3)cs2)c1 [Compound 191] | < 0.01 µM | > 0.01 µM
22 | COCCS(=O)(=O)n1ccc(C(=O)NCC(=O)Nc2nc(-c3cccc(N4C[C@@H](C)O[C@@H](C)C4)c3)cs2)c1 [Compound 193] | > 0.01 µM | > 0.01 µM
23 | CC1(C)CN(c2cccc(-c3csc(NC(=O)CNC(=O)c4ccn(S(C)(=O)=O)c4)n3)c2)CCC1O (centres unmarked) [Compound 194] | < 0.01 µM | > 0.01 µM
24 | CS(=O)(=O)n1ccc(C(=O)NCC(=O)Nc2nc(-c3cccc(N4CC[C@@H](O)[C@H](F)C4)c3)cs2)c1 [Compound 195] | < 0.01 µM | < 0.01 µM
25 | CS(=O)(=O)n1ccc(C(=O)NCC(=O)Nc2nc(-c3cccc(N4CC[C@@H](O)[C@@H](F)C4)c3)cs2)c1 [Compound 196] | < 0.01 µM | < 0.01 µM
26 | CS(=O)(=O)n1ccc(C(=O)NCC(=O)Nc2nc(-c3cccc(N4CCC[C@H](C#N)C4)c3)cs2)c1 [Compound 197] | < 0.01 µM | > 0.01 µM
27 | CO[C@H]1CN(c2cccc(-c3csc(NC(=O)CNC(=O)c4ccn(S(C)(=O)=O)c4)n3)c2)C[C@H]1OC [Compound 199] | > 0.01 µM | > 0.01 µM
28 | COC[C@H]1CCN(c2cccc(-c3csc(NC(=O)CNC(=O)c4ccn(S(C)(=O)=O)c4)n3)c2)C1 [Compound 200] | > 0.01 µM | > 0.01 µM
29 | COC[C@@H]1CCN(c2cccc(-c3csc(NC(=O)CNC(=O)c4ccn(S(C)(=O)=O)c4)n3)c2)C1 [Compound 201] | < 0.01 µM | > 0.01 µM
30 | CS(=O)(=O)n1ccc(C(=O)NCC(=O)Nc2nc(-c3cccc(N4CCC5(CC4)COC5)c3)cs2)c1 [Compound 202] | > 0.01 µM | > 0.01 µM
31 | CC1(C)CN(c2cccc(-c3csc(NC(=O)CNC(=O)c4ccn(S(C)(=O)=O)c4)n3)c2)CC(C)(C)O1 [Compound 203] | > 0.01 µM | > 0.01 µM
32 | CS(=O)(=O)n1ccc(C(=O)NCC(=O)Nc2nc(-c3cccc(N4CCCC5(COC5)C4)c3)cs2)c1 [Compound 204] | > 0.01 µM | > 0.01 µM
33 | C[C@]1(O)CCCN(c2cccc(-c3csc(NC(=O)CNC(=O)c4ccn(S(C)(=O)=O)c4)n3)c2)C1 [Compound 205] | > 0.01 µM | > 0.01 µM
34 | C[C@@]1(O)CCCN(c2cccc(-c3csc(NC(=O)CNC(=O)c4ccn(S(C)(=O)=O)c4)n3)c2)C1 [Compound 206] | < 0.01 µM | > 0.01 µM
35 | CS(=O)(=O)n1ccc(C(=O)NCC(=O)Nc2nc(-c3cccc(N4C[C@H]5C[C@H]5C4)c3)cs2)c1 [Compound 207] | > 0.01 µM | > 0.01 µM
36 | CS(=O)(=O)n1ccc(C(=O)NCC(=O)Nc2nc(-c3cccc(N4CCC[C@H](F)C4)c3)cs2)c1 [Compound 208] | > 0.01 µM | > 0.01 µM

Continued, values first:

Row | IC50 (BRM) | IC50 (BRG-1) | SMILES
37 | > 0.01 µM | > 0.01 µM | CCS(=O)(=O)n1ccc(C(=O)NCC(=O)Nc2nc(-c3cccc(N4CCC(O)CC4)c3)cs2)c1 [Compound 209]
38 | > 0.01 µM | > 0.01 µM | CS(=O)(=O)n1ccc(C(=O)NCC(=O)Nc2nc(-c3cccc(N4CCCOCC4)c3)cs2)c1 [Compound 210]
39 | > 0.01 µM | > 0.01 µM | CS(=O)(=O)n1ccc(C(=O)NCC(=O)Nc2nc(-c3cccc(N4CCC[C@@H](C#N)C4)c3)cs2)c1 [Compound 211]
40 | < 0.01 µM | < 0.01 µM | CS(=O)(=O)n1ccc(C(=O)NCC(=O)Nc2nc(-c3cccc(N4CC(O)C4)c3)cs2)c1 [Compound 212]
41 | > 0.01 µM | > 0.01 µM | CS(=O)(=O)n1ccc(C(=O)NCC(=O)Nc2nc(-c3cccc(N4CCC[C@@H](F)C4)c3)cs2)c1 [Compound 213]
42 | > 0.1 µM | > 0.1 µM | CS(=O)(=O)n1ccc(C(=O)NCC(=O)Nc2nc(-c3cccc(N4CC5CC4CO5)c3)cs2)c1 (centres unmarked) [Compound 214]
43 | > 0.01 µM | > 0.01 µM | CS(=O)(=O)n1ccc(C(=O)NCC(=O)Nc2nc(-c3cccc(N4CCC[C@@H](O)C4)c3)cs2)c1 [Compound 215]
44 | > 0.01 µM | > 0.01 µM | CS(=O)(=O)n1ccc(C(=O)NCC(=O)Nc2nc(-c3cccc(N4CCC(C#N)CC4)c3)cs2)c1 [Compound 216]
45 | > 0.01 µM | > 0.01 µM | CC(C)(C(=O)O)n1ccc(-c2cccc(-c3csc(NC(=O)CNC(=O)c4ccn(S(C)(=O)=O)c4)n3)c2)n1 [Compound 217, 2-methyl-2-[3-[3-[2-[[2-[(1-methylsulfonylpyrrole-3-carbonyl)amino]acetyl]amino]thiazol-4-yl]phenyl]pyrazol-1-yl]propanoic acid]
46 | > 0.01 µM | > 0.01 µM | CS(=O)(=O)n1ccc(C(=O)NCC(=O)Nc2nc(-c3cccc(-c4ccn(CC(=O)O)n4)c3)cs2)c1 [Compound 218]
47 | > 0.01 µM | > 0.01 µM | C[C@H]1CN(c2cccc(-c3csc(NC(=O)CNC(=O)c4ccn(S(C)(=O)=O)c4)n3)c2)CC[C@H]1O [Compound 219]
48 | > 0.01 µM | > 0.01 µM | CN1CCN(c2cccc(-c3csc(NC(=O)CNC(=O)c4ccn(S(C)(=O)=O)c4)n3)c2)CC1=O [Compound 220]
49 | > 0.01 µM | > 0.01 µM | C[C@@H]1CN(c2cccc(-c3csc(NC(=O)CNC(=O)c4ccn(S(=O)(=O)N(C)C)c4)n3)c2)C[C@H](C)O1 [Compound 221]
50 | > 0.01 µM | > 0.1 µM | COC1CC2(C1)CN(c1cccc(-c3csc(NC(=O)CNC(=O)c4ccn(S(C)(=O)=O)c4)n3)c1)C2 [Compound 222]
51 | > 0.01 µM | > 0.01 µM | CS(=O)(=O)n1ccc(C(=O)NCC(=O)Nc2nc(-c3cccc(N4C[C@H]5COC[C@H]5C4)c3)cs2)c1 [Compound 223]
52 | > 0.01 µM | > 0.01 µM | CO[C@H]1CCN(c2cccc(-c3csc(NC(=O)CNC(=O)c4ccn(S(C)(=O)=O)c4)n3)c2)C1 [Compound 224]
